SMILES strings stand for the structures.

One may read the EC50 as the concentration giving half of the maximal effect.

Assay [1] addresses T1, PcaKN.Ani (Neisseria animalis, UniProt A0A5P3MSQ9).
T1 construct: gene D0T90_09335; full-length transporter expressed in Pseudomonas putida KT2440 delta-pcaK with PcaV-sfGFP reporter plasmid; 4,5-cleavage pathway operon
Description: uptake-coupled PcaV-sfGFP biosensor dose response in P. putida KT2440 delta-pcaK. The format is cell-based. An excerpt: uptake-coupled PcaV-sfGFP biosensor dose response in P. putida KT2440 delta-pcaK on PcaKN.Ani

Assay [2] concerns T2, PcaKB.Mas.
T2 construct: gene pcaK; full-length transporter expressed in Pseudomonas putida KT2440 delta-pcaK with PcaV-sfGFP reporter plasmid; 2,3-cleavage pathway operon
The description is as above. The format is cell-based, Bacillus massiliglaciei. The settings on record: whole-cell transporter-biosensor EC50 (reflects transporter plus PcaV sensor); LB, 3 h, 0.01-5 mM PCA. An excerpt:
uptake-coupled PcaV-sfGFP biosensor dose response in P. putida KT2440 delta-pcaK on PcaKB.Mas

Assay [3] has as its target T3, PcakA.Ant (Comamonas antarctica, UniProt A0A6N1X255).
T3 construct: gene HUK68_11000; full-length transporter expressed in Pseudomonas putida KT2440 delta-pcaK with PcaV-sfGFP reporter plasmid; 4,5-cleavage pathway operon
T3 sequence (A0A6N1X255 1-458): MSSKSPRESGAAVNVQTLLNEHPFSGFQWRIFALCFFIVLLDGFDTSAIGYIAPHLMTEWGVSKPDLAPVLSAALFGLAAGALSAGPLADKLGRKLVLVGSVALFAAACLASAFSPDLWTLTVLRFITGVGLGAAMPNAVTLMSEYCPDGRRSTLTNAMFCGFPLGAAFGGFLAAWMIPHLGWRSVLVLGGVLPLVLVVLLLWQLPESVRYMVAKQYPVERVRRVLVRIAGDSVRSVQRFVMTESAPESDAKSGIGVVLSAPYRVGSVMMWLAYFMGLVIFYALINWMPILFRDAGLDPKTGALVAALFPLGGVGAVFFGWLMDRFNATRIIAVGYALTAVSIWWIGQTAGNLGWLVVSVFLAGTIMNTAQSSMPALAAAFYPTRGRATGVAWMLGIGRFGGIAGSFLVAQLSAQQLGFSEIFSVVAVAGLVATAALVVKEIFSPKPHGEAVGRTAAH
The description is as above. The format is cell-based. An excerpt: uptake-coupled PcaV-sfGFP biosensor dose response in P. putida KT2440 delta-pcaK on PcakA.Ant

The target in assay [4] is T4, PcaKP.Put (Pseudomonas putida, UniProt Q51955).
T4 construct: gene pcaK; full-length transporter expressed in Pseudomonas putida KT2440 delta-pcaK with PcaV-sfGFP reporter plasmid
T4 sequence (Q51955 1-448): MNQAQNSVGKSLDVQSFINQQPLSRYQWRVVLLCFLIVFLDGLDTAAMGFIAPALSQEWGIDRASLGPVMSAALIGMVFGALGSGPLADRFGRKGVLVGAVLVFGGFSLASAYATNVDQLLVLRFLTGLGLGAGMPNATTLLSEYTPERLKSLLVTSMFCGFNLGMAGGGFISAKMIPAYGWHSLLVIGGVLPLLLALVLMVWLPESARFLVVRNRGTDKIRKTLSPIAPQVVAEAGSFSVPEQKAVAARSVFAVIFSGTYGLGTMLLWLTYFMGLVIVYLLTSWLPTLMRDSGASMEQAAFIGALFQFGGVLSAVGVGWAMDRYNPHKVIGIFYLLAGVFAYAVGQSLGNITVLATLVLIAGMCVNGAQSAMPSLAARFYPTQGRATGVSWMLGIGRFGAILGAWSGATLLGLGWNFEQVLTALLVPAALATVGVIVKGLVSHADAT
The assay is described as above. The format is cell-based. An excerpt:
uptake-coupled PcaV-sfGFP biosensor dose response in P. putida KT2440 delta-pcaK on PcaKP.Put

Assay [5] relates to T5, TphKP.Um.
T5 construct: gene tphK; full-length transporter expressed in Pseudomonas putida KT2440 with TphR-sfGFP reporter plasmid
Description: uptake-coupled TphR-sfGFP biosensor dose response in P. putida KT2440. The format is cell-based, Pseudomonas umsongensis. The settings on record: whole-cell transporter-biosensor EC50 (reflects transporter plus TphR sensor); LB, 16 h, 0.005-1 mM TPA. An excerpt: uptake-coupled TphR-sfGFP biosensor dose response in P. putida KT2440 on TphKP.Um

Assay [6] addresses T6, TphKP.Man (Pseudomonas mandelii, UniProt A0A024E7Y9).
T6 construct: gene tpaK; full-length transporter expressed in Pseudomonas putida KT2440 with TphR-sfGFP reporter plasmid
Described as above. In kind it is cell-based. An excerpt:
uptake-coupled TphR-sfGFP biosensor dose response in P. putida KT2440 on TphKP.Man

The subject of assay [7] is T7, TphKS.Nap.
T7 construct: gene tphK; full-length transporter expressed in Pseudomonas putida KT2440 with TphR-sfGFP reporter plasmid
The assay is described as above. In kind it is cell-based, Sphingobium naphthae. The settings on record: whole-cell transporter-biosensor EC50 (reflects transporter plus TphR sensor); LB, 16 h, 0.005-1 mM TPA. An excerpt:
uptake-coupled TphR-sfGFP biosensor dose response in P. putida KT2440 on TphKS.Nap

For assay [8], the system named is T8, TphKB.Pac.
T8 construct: gene tphK; full-length transporter expressed in Pseudomonas putida KT2440 with TphR-sfGFP reporter plasmid
The assay is described as above. In kind it is cell-based, Bradyrhizobium pachyrhizi. The note with it: whole-cell transporter-biosensor EC50 (reflects transporter plus TphR sensor); LB, 16 h, 0.005-1 mM TPA. An excerpt:
uptake-coupled TphR-sfGFP biosensor dose response in P. putida KT2440 on TphKB.Pac

Assay [9] concerns T9, TphKS.Hor.
T9 construct: gene tphK; full-length transporter expressed in Pseudomonas putida KT2440 with TphR-sfGFP reporter plasmid
The assay is described as above. The format is cell-based, Saccharopolyspora hordei. The note with it: whole-cell transporter-biosensor EC50 (reflects transporter plus TphR sensor); LB, 16 h, 0.005-1 mM TPA. An excerpt: uptake-coupled TphR-sfGFP biosensor dose response in P. putida KT2440 on TphKS.Hor

In assay [10] the test system is T10, TphKR.Pyr.
T10 construct: gene tphK; full-length transporter expressed in Pseudomonas putida KT2440 with TphR-sfGFP reporter plasmid
The assay is described as above. The format is cell-based, Rhodococcus pyridinivorans. The note with it: whole-cell transporter-biosensor EC50 (reflects transporter plus TphR sensor); LB, 16 h, 0.005-1 mM TPA. An excerpt:
uptake-coupled TphR-sfGFP biosensor dose response in P. putida KT2440 on TphKR.Pyr

Assay [11] concerns the target T11, TphKR.Op (Rhodococcus opacus, UniProt A0A1B1KG70).
T11 construct: gene tpaK; full-length transporter expressed in Pseudomonas putida KT2440 with TphR-sfGFP reporter plasmid
T11 sequence (A0A1B1KG70 1-459): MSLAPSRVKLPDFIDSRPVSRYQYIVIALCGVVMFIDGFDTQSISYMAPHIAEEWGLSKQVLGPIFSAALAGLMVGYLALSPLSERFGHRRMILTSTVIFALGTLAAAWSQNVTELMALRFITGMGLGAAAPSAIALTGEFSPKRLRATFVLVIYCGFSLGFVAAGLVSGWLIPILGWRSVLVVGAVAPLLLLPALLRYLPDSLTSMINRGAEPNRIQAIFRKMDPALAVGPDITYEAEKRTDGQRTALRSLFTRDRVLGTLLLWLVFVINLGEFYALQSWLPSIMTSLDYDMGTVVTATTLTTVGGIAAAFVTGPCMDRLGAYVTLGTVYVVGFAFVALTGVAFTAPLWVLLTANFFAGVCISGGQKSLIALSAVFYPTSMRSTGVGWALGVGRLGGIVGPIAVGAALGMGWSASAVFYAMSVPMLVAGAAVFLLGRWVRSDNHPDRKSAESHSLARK
Described as above. In kind it is cell-based. An excerpt:
uptake-coupled TphR-sfGFP biosensor dose response in P. putida KT2440 on TphKR.Op

T1 sequence (A0A5P3MSQ9 entry or part of it): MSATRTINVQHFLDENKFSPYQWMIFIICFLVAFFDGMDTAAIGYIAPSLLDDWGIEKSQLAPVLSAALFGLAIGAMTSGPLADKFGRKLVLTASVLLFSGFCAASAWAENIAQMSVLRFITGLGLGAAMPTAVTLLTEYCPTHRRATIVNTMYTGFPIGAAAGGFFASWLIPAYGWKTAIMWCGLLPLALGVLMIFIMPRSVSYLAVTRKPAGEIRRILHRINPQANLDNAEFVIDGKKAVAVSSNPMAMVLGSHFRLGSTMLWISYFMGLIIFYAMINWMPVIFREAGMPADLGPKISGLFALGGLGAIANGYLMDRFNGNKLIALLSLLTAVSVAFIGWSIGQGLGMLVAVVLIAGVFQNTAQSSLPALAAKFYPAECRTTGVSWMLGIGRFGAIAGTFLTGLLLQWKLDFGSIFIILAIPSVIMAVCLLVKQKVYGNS

In the case of `O=C(O)c1ccc(O)c(O)c1` [P2, protocatechuic acid], the EC50 was found to be 847 µM in assay [1], 1710 µM in [2], 735 µM in [3] and 2050 µM in assay [4].

On to `O=C(O)c1ccc(C(=O)O)cc1` [T3, terephthalic acid], for which the EC50 in assay [5] was determined as 19.1 µM; in assay [6] it was 14.4 µM; in [7], 1.96 µM; in [8], 17.1 µM; in assay [9], 39.6 µM; in assay [10] it was 10.7 µM. The EC50 in assay [11] was 79.2 µM.

Source of the values: PMC12577307, “Genetically encoded biosensor enabled mining, characterisation and engineering of aromatic acid MFS transporters” (Journal of Biological Engineering, 2025).
